Test results taken from article PMC2715367 (Journal of medicinal chemistry, 2009).
Marks after values point to notes of the source that are not given here. Blank lines part the entries; values can stand above or below the molecule they belong to.

Columns and labels:
[1] = system: T. cruzi trypomastigotes (Tulahuen strain); assay: Efficacy studies in T. cruzi infected mice; assay type: in vivo; settings: for Weight loss in mice: 100 mg/kg twice per day, days 8−13; for Survival of infected mice: oral gavage for 20 days from day 8 post-infection
rat PFT = rat PFT (Rattus norvegicus, UniProt Q02293+Q04631); assay: Rat PFT scintillation proximity assay; assay type: biochemical; settings: for Fold increase in PFT IC50 (decrease in PFT inhibition) compared to tipifarnib: rat PFT
human 14DM = biological target: T1, human 14DM (Homo sapiens, UniProt Q16850); assay: Inhibition of human 14DM; assay type: biochemical; settings: same conditions as Tc14DM assay
T1 sequence (Q16850 1-509): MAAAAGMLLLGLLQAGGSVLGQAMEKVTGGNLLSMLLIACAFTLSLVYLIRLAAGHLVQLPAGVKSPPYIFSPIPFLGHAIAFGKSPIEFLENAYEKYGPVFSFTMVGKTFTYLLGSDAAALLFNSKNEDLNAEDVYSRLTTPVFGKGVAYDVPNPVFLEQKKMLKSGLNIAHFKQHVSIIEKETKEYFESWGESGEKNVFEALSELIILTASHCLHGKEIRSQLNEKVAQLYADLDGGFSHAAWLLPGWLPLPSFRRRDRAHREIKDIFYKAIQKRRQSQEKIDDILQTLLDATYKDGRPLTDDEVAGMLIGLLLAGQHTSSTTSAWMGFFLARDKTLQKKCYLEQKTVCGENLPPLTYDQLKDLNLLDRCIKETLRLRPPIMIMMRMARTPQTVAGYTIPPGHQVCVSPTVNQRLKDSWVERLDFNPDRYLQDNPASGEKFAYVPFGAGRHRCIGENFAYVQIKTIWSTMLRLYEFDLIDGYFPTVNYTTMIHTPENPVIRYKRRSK

T. cruzi amastigotes = assay: T. cruzi growth inhibition assay; assay type: cell-based; settings: Trypanosoma cruzi, read-out: T. cruzi amastigote EC50
[2] = oral; cited from earlier work
T. cruzi PFT enzyme = settings: cited from earlier work
[3] = system: mammalian cytochrome P450 enzymes; settings: cited from earlier work
[4] = cited from earlier work
[5] = Pharmacokinetic studies in mice; settings: female, BALB/c, mouse, po, 50 mg/kg
[6] = biological target: recombinant human CYP3A4 enzyme (Homo sapiens, UniProt P08684); assay: CYP3A4 inhibition assay; assay type: in vitro ADME; settings: in vitro
Sequence of recombinant human CYP3A4 enzyme (P08684 whole entry): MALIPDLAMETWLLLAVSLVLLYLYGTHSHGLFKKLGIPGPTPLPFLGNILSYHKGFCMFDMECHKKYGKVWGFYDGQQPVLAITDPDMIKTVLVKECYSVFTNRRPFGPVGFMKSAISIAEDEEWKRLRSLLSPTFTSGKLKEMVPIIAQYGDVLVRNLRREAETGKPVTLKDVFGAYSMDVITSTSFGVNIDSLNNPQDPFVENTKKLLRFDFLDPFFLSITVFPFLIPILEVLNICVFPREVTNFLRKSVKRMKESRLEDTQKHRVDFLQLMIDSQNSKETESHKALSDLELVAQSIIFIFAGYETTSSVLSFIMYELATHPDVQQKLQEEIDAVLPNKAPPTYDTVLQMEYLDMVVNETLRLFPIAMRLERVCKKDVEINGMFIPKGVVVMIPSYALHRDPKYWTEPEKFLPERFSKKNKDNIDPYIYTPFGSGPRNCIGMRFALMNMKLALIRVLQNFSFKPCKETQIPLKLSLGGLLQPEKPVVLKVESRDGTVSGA

SMILES: O=C(Cn1ccnc1[N+](=O)[O-])NCc1ccccc1 [Benznidazole, benznidazole]
Mice with positive parasite blood cultures ([1]; surviving mice sacrificed at day 103 post-infection): 3 of 6

SMILES: Cn1cncc1[C@@](N)(c1ccc(Cl)cc1)c1ccc2c(c1)c(-c1cccc(Cl)c1)cc(=O)n2C [Tipifarnib, tipifarnib]
EC50 (T. cruzi amastigotes): 6 nM | Inhibition of human 14DM (human 14DM): do not inhibit | Weight loss in mice [1]: some weight loss was observed | Survival of infected mice [1]: did not protect the mice from death | Delay in development of high parasitemia ([1]; oral gavage twice daily from day 8 post-infection): 3−4 days | Terminal half-life [2]: 16 h | Activity against isolated T. cruzi PFT enzyme (T. cruzi PFT enzyme): weak activity | Inhibitory activity against mammalian cytochrome P450 enzymes [3]: very little inhibitory activity | Dose limiting toxicities in humans [4]: bone marrow suppression | Cmax ([5]; in vivo): 5 to 7 µM | half-life ([5]; in vivo): ~4 h

SMILES: COC(c1ccc(Cl)cc1)(c1ccc2c(c1)c(-c1cccc(Cl)c1C)cc(=O)n2C)c1cncn1C (racemic) [Compound 2g, 4-(3-Chloro-2-methylphenyl)-6-((4-chlorophenyl)(methoxy)(1-methyl-1H-imidazol-5-yl)methyl)-1-methylquinolin-2(1H)-one]
Ratio IC50/EC50 (rat PFT; PFT IC50 / T. cruzi amastigote EC50): >7700 ^* | inhibition at 5 µM (rat PFT; read-out: PFT inhibition at highest concentration evaluated): < 50% | Inhibition of CYP3A4 (in words) [6]: weak inhibition | Inhibition of human 14DM (human 14DM): do not inhibit | Weight loss in mice [1]: some weight loss was observed | Survival of infected mice [1]: One mouse in the 2g group died after the end of treatment | Cmax ([5]; plasma): 5 to 7 µM

SMILES: Cc1ccccc1-c1cc(=O)n(C)c2ccc([C@](N)(c3ccc(Cl)cc3)c3cncn3C)cc12 (racemic) [Compound 2d]
Fold increase in PFT IC50 (decrease in PFT inhibition) compared to tipifarnib (rat PFT): about 430 fold

Results, then the molecule that gave them:

Fold increase in PFT IC50 (decrease in PFT inhibition) compared to tipifarnib (rat PFT): 19 fold
SMILES: Cc1cc([C@@](N)(c2ccc3c(c2)c(-c2cccc(Cl)c2)cc(=O)n3C)c2cncn2C)ccc1Cl (racemic) [Compound 2a]

Inhibition of human 14DM (human 14DM): do not inhibit
SMILES: Cn1cncc1[C@@](N)(c1ccc(Cl)cc1)c1ccc2c(c1)c(-c1cccc3ccccc13)cc(=O)n2C (racemic) [Compound 2f]

Inhibition of human 14DM (human 14DM): do not inhibit
SMILES: Cc1c(Cl)cccc1-c1cc(=O)n(C)c2ccc([C@](N)(c3ccc(Cl)cc3)c3cncn3C)cc12 (racemic) [Compound 2c]
